PubChem BioAssay AID1963850 (Molecular Pharmacology Branch, DTP, NCI, 2024)

System: 192522-019-R-J2-PDC complex tumor spheroid viability
Experiment: Anticancer human tumor 192522-019-R-J2-PDC patient-derived colon adenocarcinoma cell line growth inhibition [POLQ]
Settings: for IC50: curve of first compound; for viability, T/C: stronger effect = lower value
Description: Multicellular complex tumor spheroid response to Polymerase (POL) inhibitors (novobiocin, ART-558, RP6685) in combination with a variety of drugs and investigational agents in selected tumor cell lines
The POL inhibitors (novobiocin, ART-558, and RP6685) were evaluated both individually and in combination with standard of care and investigational anticancer small molecules within a complex spheroid model of solid tumors. . Complex spheroids include a stromal component modeled by human endothelial cells (HUVEC) and fibroblasts modeled by human mesenchymal stem cells (MSCs). The concentration ranges selected for each drug and investigational agent were based upon clinically achievable concentrations if the clinical Cmax of the agent was known.
Compounds. The drugs and investigational agents: novobiocin (NSC847541), ART-558 (NSC835418), RP-6685 (NSC848927), peposertib (NSC802822), ceralasertib (NSC780249), elimusertib (NSC800525), camonsertib (NSC841442), AZD-1390 (NSC803789), olaparib (NSC753686), talazoparib (NSC767125), rucaparib (NSC756644), sotorasib (NSC818433), MRTX-1133 (NSC836407), SN-38 (NSC673596), topotecan (NSC609699), epotoside (NSC141540), doxorubicin (NSC123127), gemcitabine (NSC613327), 5-fluorouracil (NSC19893), paclitaxel (NSC125973), vemurafenib (NSC761431), MSA-2 (NSC828583), SN-011 (NSC837082), adavosertib (NSC754352), prexasertib (NSC758257), carboplatin (NSC241240) and oxaliplatin (NSC266046), were obtained from the National Cancer Institute (NCI) Developmental Therapeutics Program Chemical Repository (21). The FDA-approved anticancer drug set is available from the Developmental Therapeutics Program at https://dtp.cancer.gov/organization/dscb/obtaining/. […] The stock solutions were prepared in dimethyl sulfoxide (DMSO, Sigma-Aldrich, St. Louis, MO, cat. D2650), except for the platinum compounds which were prepared in saline (Quality Biological, Gaithersburg, MD, cat. 114-055-101), at 800-fold the tested concentration and stored at -70 degrees C prior to their use. All drugs and investigational agents were tested over a range starting from a high concentration at or near the clinical Cmax and decreasing in half-log increments. If the clinical Cmax for an agent had not been determined, the highest concentration tested was 10 microM, except for SN-38, which was tested at a high concentration of 1 microM.
Cell Culture. All cells were maintained in an incubator at 37 degrees C and 5% CO2 with 95% humidity. The PDC lines were cultured according to standard operating procedures established by the NCI PDMR (https://pdmr.cancer.gov). Table 3 of the manuscript, lists the cell lines along with the number of the three cell types plated to form the mct-spheroids and media for tumor cell growth. After thawing, all PDC lines, except 997537-175-T-J1-PDC and 415267-285-R-J2-PDC, were cultured in Matrigel-coated flasks prepared with a working solution of 1X Ham's F-12 nutrient mix, without supplementation (Thermo Fisher Scientific, cat. 11765054), 100 U/mL penicillin-streptomycin (Thermo Fisher Scientific, cat. 15140122), and 2.5% Matrigel (Corning Inc., Corning, NY, cat. 354248) for the first three passages. The two PDC lines 997537-175-T-J1-PDC and 415267-285-R-J2-PDC were cultured on uncoated flasks. The 857933-349-R-J2-PDC line was cultured in 6C/Colon 1B media containing advanced DMEM/F-12 (Thermo Fisher Scientific, cat. 12634028), 10 mM HEPES (Thermo Fisher Scientific, cat. 15630080), 1X GlutaMAX supplement (Thermo Fisher Scientific, cat. 35050061), 0.1 mg/mL primocin (InvivoGen, San Diego, CA, cat. ant-pm-2), 10% defined fetal bovine serum, heat inactivated (HyClone Laboratories Inc., Logan, UT, cat. SH30070.03HI), 50% L-WRN conditioned media (ATCC, cat. CRL-3276), 1.25 mM N-Acetyl-L-cysteine (Sigma-Aldrich, cat. A9165), 10 mM nicotinamide (Sigma-Aldrich, cat. N0636), 1X B-27 supplement (Thermo Fisher Scientific, cat. 17504044), 1X N-2 supplement (Thermo Fisher Scientific, cat. […]

[1] = second compound 0.0316 µM, first compound 0.0316 µM
[2] = second compound 0.0316 µM, first compound 0.1 µM
[3] = second compound 0.0316 µM, first compound 0.316 µM
[4] = second compound 0.0316 µM, first compound 1 µM
[5] = second compound 0.0316 µM, first compound 3.16 µM
[6] = second compound 0.0316 µM, first compound 10 µM
[7] = second compound 0.1 µM, first compound 0.0316 µM
[8] = second compound 0.1 µM, first compound 0.1 µM
[9] = second compound 0.1 µM, first compound 0.316 µM
[10] = second compound 0.1 µM, first compound 1 µM
[11] = second compound 0.1 µM, first compound 3.16 µM
[12] = second compound 0.1 µM, first compound 10 µM
[13] = second compound 0.316 µM, first compound 0.0316 µM
[14] = second compound 0.316 µM, first compound 0.1 µM
[15] = second compound 0.316 µM, first compound 0.316 µM
[16] = second compound 0.316 µM, first compound 1 µM
[17] = second compound 0.316 µM, first compound 3.16 µM
[18] = second compound 0.316 µM, first compound 10 µM
[19] = second compound 1 µM, first compound 0.0316 µM
[20] = second compound 1 µM, first compound 0.1 µM
[21] = second compound 1 µM, first compound 0.316 µM
[22] = second compound 1 µM, first compound 1 µM
[23] = second compound 1 µM, first compound 3.16 µM
[24] = second compound 1 µM, first compound 10 µM
[25] = second compound 3.16 µM, first compound 0.0316 µM
[26] = second compound 3.16 µM, first compound 0.1 µM
[27] = second compound 3.16 µM, first compound 0.316 µM
[28] = second compound 3.16 µM, first compound 1 µM
[29] = second compound 3.16 µM, first compound 3.16 µM
[30] = second compound 3.16 µM, first compound 10 µM
[31] = second compound 10 µM, first compound 0.0316 µM
[32] = second compound 10 µM, first compound 0.1 µM
[33] = second compound 10 µM, first compound 0.316 µM
[34] = second compound 10 µM, first compound 1 µM
[35] = second compound 10 µM, first compound 3.16 µM
[36] = second compound 10 µM, first compound 10 µM
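Also: spheroids exposed to drugs for seven days before reading.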
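For viability, T/C in this document: 100% = DMSO vehicle control viability in luminescence.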

SMILES: COc1ccc([C@@H](O)c2cc(-c3ncnc4cc(N5CCOCC5)ccc34)c(F)cc2Cl)nn1 + COC1C(OC(N)=O)C(O)C(Oc2ccc3c(O)c(NC(=O)c4ccc(O)c(CC=C(C)C)c4)c(=O)oc3c2C)OC1(C)C
- IC50 (second compound 0.0316 µM): > 10 µM
- IC50 (second compound 0.1 µM): > 10 µM
- IC50 (second compound 0.316 µM): > 10 µM
- IC50 (second compound 1 µM): > 10 µM
- IC50 (second compound 3.16 µM): > 10 µM
- IC50 (second compound 10 µM): > 10 µM
- viability, T/C [1]: 105%
- viability, T/C [2]: 87.2%
- viability, T/C [3]: 120%
- viability, T/C [4]: 97.7%
- viability, T/C [5]: 99.8%
- viability, T/C [6]: 63.1%
- viability, T/C [7]: 109%
- viability, T/C [8]: 97.6%
- viability, T/C [9]: 106%
- viability, T/C [10]: 95.5%
- viability, T/C [11]: 88.1%
- viability, T/C [12]: 62.4%
- viability, T/C [13]: 117%
- viability, T/C [14]: 93.2%
- viability, T/C [15]: 103%
- viability, T/C [16]: 107%
- viability, T/C [17]: 97.8%
- viability, T/C [18]: 68.5%
- viability, T/C [19]: 109%
- viability, T/C [20]: 106%
- viability, T/C [21]: 104%
- viability, T/C [22]: 92.9%
- viability, T/C [23]: 86.8%
- viability, T/C [24]: 63.1%
- viability, T/C [25]: 96%
- viability, T/C [26]: 99.2%
- viability, T/C [27]: 117%
- viability, T/C [28]: 84.9%
- viability, T/C [29]: 98.1%
- viability, T/C [30]: 72.9%
- viability, T/C [31]: 103%
- viability, T/C [32]: 104%
- viability, T/C [33]: 114%
- viability, T/C [34]: 108%
- viability, T/C [35]: 99.2%
- viability, T/C [36]: 66.9%

SMILES: C#Cc1c(F)ccc2cc(O)cc(-c3ncc4c(N5CC6CCC(C5)N6)nc(OCC56CCCN5CC(F)C6)nc4c3F)c12 (stereo unspecified) + Nc1ccc(C#CCN(C(=O)Cc2ncc(C(F)(F)F)cc2C(F)(F)F)c2ccc(F)cc2)nn1
- IC50 (second compound 0.0316 µM): > 10 µM
- IC50 (second compound 0.1 µM): > 10 µM
- IC50 (second compound 0.316 µM): > 10 µM
- IC50 (second compound 1 µM): > 10 µM
- IC50 (second compound 3.16 µM): > 10 µM
- IC50 (second compound 10 µM): > 10 µM
- viability, T/C [1]: 93.8%
- viability, T/C [2]: 88.8%
- viability, T/C [3]: 78.2%
- viability, T/C [4]: 80.9%
- viability, T/C [5]: 67.9%
- viability, T/C [6]: 68.5%
- viability, T/C [7]: 92.8%
- viability, T/C [8]: 89.3%
- viability, T/C [9]: 72.7%
- viability, T/C [10]: 80.8%
- viability, T/C [11]: 74.5%
- viability, T/C [12]: 73.3%
- viability, T/C [13]: 88.8%
- viability, T/C [14]: 82.3%
- viability, T/C [15]: 75.3%
- viability, T/C [16]: 69.7%
- viability, T/C [17]: 68.2%
- viability, T/C [18]: 76.2%
- viability, T/C [19]: 89.5%
- viability, T/C [20]: 76.2%
- viability, T/C [21]: 78.7%
- viability, T/C [22]: 77.8%
- viability, T/C [23]: 78%
- viability, T/C [24]: 70.7%
- viability, T/C [25]: 97.9%
- viability, T/C [26]: 81.7%
- viability, T/C [27]: 71.7%
- viability, T/C [28]: 73.2%
- viability, T/C [29]: 78.4%
- viability, T/C [30]: 70.4%
- viability, T/C [31]: 91.9%
- viability, T/C [32]: 79.5%
- viability, T/C [33]: 80.2%
- viability, T/C [34]: 77.2%
- viability, T/C [35]: 73.7%
- viability, T/C [36]: 79.8%

SMILES: CCc1cc2c(N3CCc4c(cc(Cn5ccnc5)cc4-c4cn(C)nc4C(F)(F)F)C3=O)ccnc2c(OC)n1 + COC1C(OC(N)=O)C(O)C(Oc2ccc3c(O)c(NC(=O)c4ccc(O)c(CC=C(C)C)c4)c(=O)oc3c2C)OC1(C)C
- IC50 (second compound 0.0316 µM): > 10 µM
- IC50 (second compound 0.1 µM): > 10 µM
- IC50 (second compound 0.316 µM): > 10 µM
- IC50 (second compound 1 µM): > 10 µM
- IC50 (second compound 3.16 µM): > 10 µM
- IC50 (second compound 10 µM): > 10 µM
- viability, T/C [1]: 98.8%
- viability, T/C [2]: 89.9%
- viability, T/C [3]: 86.5%
- viability, T/C [4]: 89.3%
- viability, T/C [5]: 88.8%
- viability, T/C [6]: 63%
- viability, T/C [7]: 101%
- viability, T/C [8]: 88.9%
- viability, T/C [9]: 93.7%
- viability, T/C [10]: 84.7%
- viability, T/C [11]: 78.5%
- viability, T/C [12]: 67.7%
- viability, T/C [13]: 101%
- viability, T/C [14]: 93.7%
- viability, T/C [15]: 89.9%
- viability, T/C [16]: 90.9%
- viability, T/C [17]: 68.3%
- viability, T/C [18]: 71.2%
- viability, T/C [19]: 101%
- viability, T/C [20]: 94%
- viability, T/C [21]: 85.4%
- viability, T/C [22]: 96.6%
- viability, T/C [23]: 76.7%
- viability, T/C [24]: 67.8%
- viability, T/C [25]: 106%
- viability, T/C [26]: 102%
- viability, T/C [27]: 92%
- viability, T/C [28]: 91.9%
- viability, T/C [29]: 90.5%
- viability, T/C [30]: 68.3%
- viability, T/C [31]: 97.5%
- viability, T/C [32]: 88.7%
- viability, T/C [33]: 95.6%
- viability, T/C [34]: 92.1%
- viability, T/C [35]: 87.3%
- viability, T/C [36]: 74.7%
